Measurements as given in PubChem BioAssay AID1963958 (Molecular Pharmacology Branch, DTP, NCI, 2024).

Test system: MDA-MB-231 multicell spheroids, viability
Assay: Anticancer human tumor MDA-MB-231 cell line growth inhibition [PI3K];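 note: spheroids exposed to agents for seven days before reading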;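 for viability, T/C: percent of vehicle control luminescence with DMSO treated spheroids as 100%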
Conditions: for IC50: curve of first compound; for viability, T/C: stronger effect = lower value
Procedure, shortened: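 Combination activity was assessed by viability in multicellular tumor spheroids carrying HUVEC and MSC components. Agents were tested with PI3K inhibitors from a Cmax-based top dose (or 10 microM) downward in half-log increments.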

[1] = second compound 0.0316 µM, first compound 0.0316 µM
[2] = second compound 0.0316 µM, first compound 0.1 µM
[3] = second compound 0.1 µM, first compound 0.0316 µM
[4] = second compound 0.1 µM, first compound 0.1 µM
[5] = second compound 0.316 µM, first compound 0.0316 µM
[6] = second compound 0.316 µM, first compound 0.1 µM
[7] = second compound 1 µM, first compound 0.0316 µM
[8] = second compound 1 µM, first compound 0.1 µM
[9] = second compound 3.16 µM, first compound 0.0316 µM
[10] = second compound 3.16 µM, first compound 0.1 µM
[11] = second compound 10 µM, first compound 0.0316 µM
[12] = second compound 10 µM, first compound 0.1 µM
[13] = second compound 0.0316 µM, first compound 0.316 µM
[14] = second compound 0.0316 µM, first compound 1 µM
[15] = second compound 0.0316 µM, first compound 3.16 µM
[16] = second compound 0.0316 µM, first compound 10 µM
[17] = second compound 0.1 µM, first compound 0.316 µM
[18] = second compound 0.1 µM, first compound 1 µM
[19] = second compound 0.1 µM, first compound 3.16 µM
[20] = second compound 0.1 µM, first compound 10 µM
[21] = second compound 0.316 µM, first compound 0.316 µM
[22] = second compound 0.316 µM, first compound 1 µM
[23] = second compound 0.316 µM, first compound 3.16 µM
[24] = second compound 0.316 µM, first compound 10 µM
[25] = second compound 1 µM, first compound 0.316 µM
[26] = second compound 1 µM, first compound 1 µM
[27] = second compound 1 µM, first compound 3.16 µM
[28] = second compound 1 µM, first compound 10 µM
[29] = second compound 3.16 µM, first compound 0.316 µM
[30] = second compound 3.16 µM, first compound 1 µM
[31] = second compound 3.16 µM, first compound 3.16 µM
[32] = second compound 3.16 µM, first compound 10 µM
[33] = second compound 10 µM, first compound 0.316 µM
[34] = second compound 10 µM, first compound 1 µM
[35] = second compound 10 µM, first compound 3.16 µM
[36] = second compound 10 µM, first compound 10 µM

Compound: CC(=O)c1c(C)c2cnc(Nc3ccc(N4CCNCC4)cn3)nc2n(C2CCCC2)c1=O + Cc1nc(NC(=O)N2CCCC2C(N)=O)sc1-c1ccnc(C(C)(C)C(F)(F)F)c1
- IC50 (second compound 0.0316 µM): 69.7 nM
- IC50 (second compound 0.1 µM): 52 nM
- IC50 (second compound 0.316 µM): 27.3 nM
- IC50 (second compound 1 µM): 22 nM
- IC50 (second compound 3.16 µM): 19 nM
- IC50 (second compound 10 µM): 15 nM
- viability, T/C (second compound 0.0316 µM, first compound 0.000316 µM): 98.2%
- viability, T/C (second compound 0.0316 µM, first compound 0.001 µM): 87.3%
- viability, T/C (second compound 0.0316 µM, first compound 0.00316 µM): 92.4%
- viability, T/C (second compound 0.0316 µM, first compound 0.01 µM): 82.7%
- viability, T/C [1]: 66.3%
- viability, T/C [2]: 42.5%
- viability, T/C (second compound 0.1 µM, first compound 0.000316 µM): 79.2%
- viability, T/C (second compound 0.1 µM, first compound 0.001 µM): 85.5%
- viability, T/C (second compound 0.1 µM, first compound 0.00316 µM): 81.4%
- viability, T/C (second compound 0.1 µM, first compound 0.01 µM): 73.4%
- viability, T/C [3]: 59.7%
- viability, T/C [4]: 37.8%
- viability, T/C (second compound 0.316 µM, first compound 0.000316 µM): 73.8%
- viability, T/C (second compound 0.316 µM, first compound 0.001 µM): 72.8%
- viability, T/C (second compound 0.316 µM, first compound 0.00316 µM): 71.8%
- viability, T/C (second compound 0.316 µM, first compound 0.01 µM): 60.9%
- viability, T/C [5]: 48.8%
- viability, T/C [6]: 34%
- viability, T/C (second compound 1 µM, first compound 0.000316 µM): 70.5%
- viability, T/C (second compound 1 µM, first compound 0.001 µM): 64.9%
- viability, T/C (second compound 1 µM, first compound 0.00316 µM): 63%
- viability, T/C (second compound 1 µM, first compound 0.01 µM): 59%
- viability, T/C [7]: 46%
- viability, T/C [8]: 29.6%
- viability, T/C (second compound 3.16 µM, first compound 0.000316 µM): 67.2%
- viability, T/C (second compound 3.16 µM, first compound 0.001 µM): 66.6%
- viability, T/C (second compound 3.16 µM, first compound 0.00316 µM): 61.1%
- viability, T/C (second compound 3.16 µM, first compound 0.01 µM): 56.3%
- viability, T/C [9]: 44.8%
- viability, T/C [10]: 33.2%
- viability, T/C (second compound 10 µM, first compound 0.000316 µM): 64%
- viability, T/C (second compound 10 µM, first compound 0.001 µM): 60.9%
- viability, T/C (second compound 10 µM, first compound 0.00316 µM): 58.4%
- viability, T/C (second compound 10 µM, first compound 0.01 µM): 52.4%
- viability, T/C [11]: 45.1%
- viability, T/C [12]: 31%

Compound: CCCS(=O)(=O)Nc1ccc(F)c(C(=O)c2c[nH]c3ncc(-c4ccc(Cl)cc4)cc23)c1F + Cc1nc(NC(=O)N2CCCC2C(N)=O)sc1-c1ccnc(C(C)(C)C(F)(F)F)c1
- IC50 (second compound 0.0316 µM): 4680 nM
- IC50 (second compound 0.1 µM): 3510 nM
- IC50 (second compound 0.316 µM): 2520 nM
- IC50 (second compound 1 µM): 1540 nM
- IC50 (second compound 3.16 µM): 1170 nM
- IC50 (second compound 10 µM): 359 nM
- viability, T/C [1]: 102%
- viability, T/C [2]: 102%
- viability, T/C [13]: 85.5%
- viability, T/C [14]: 80%
- viability, T/C [15]: 59.4%
- viability, T/C [16]: 31.7%
- viability, T/C [3]: 90.6%
- viability, T/C [4]: 96.6%
- viability, T/C [17]: 83.6%
- viability, T/C [18]: 74.1%
- viability, T/C [19]: 51.6%
- viability, T/C [20]: 32.6%
- viability, T/C [5]: 80.4%
- viability, T/C [6]: 80.8%
- viability, T/C [21]: 72.7%
- viability, T/C [22]: 67.2%
- viability, T/C [23]: 45.3%
- viability, T/C [24]: 31.4%
- viability, T/C [7]: 72.3%
- viability, T/C [8]: 66.6%
- viability, T/C [25]: 64.8%
- viability, T/C [26]: 57.5%
- viability, T/C [27]: 38.9%
- viability, T/C [28]: 29%
- viability, T/C [9]: 68.8%
- viability, T/C [10]: 64.8%
- viability, T/C [29]: 62.3%
- viability, T/C [30]: 51.2%
- viability, T/C [31]: 38.8%
- viability, T/C [32]: 25.9%
- viability, T/C [11]: 61.1%
- viability, T/C [12]: 56%
- viability, T/C [33]: 50.3%
- viability, T/C [34]: 43%
- viability, T/C [35]: 36.8%
- viability, T/C [36]: 22.3%

Compound: CNC(=O)c1ccc(N2C(=S)N(c3ccc(C#N)c(C(F)(F)F)c3)C(=O)C2(C)C)cc1F + Cc1nc(NC(=O)N2CCCC2C(N)=O)sc1-c1ccnc(C(C)(C)C(F)(F)F)c1
- IC50 (second compound 0.0316 µM): > 10000 nM
- IC50 (second compound 0.1 µM): > 10000 nM
- IC50 (second compound 0.316 µM): > 10000 nM
- IC50 (second compound 1 µM): > 10000 nM
- IC50 (second compound 3.16 µM): > 10000 nM
- IC50 (second compound 10 µM): > 10000 nM
- viability, T/C [1]: 100%
- viability, T/C [2]: 94%
- viability, T/C [13]: 93.3%
- viability, T/C [14]: 95.7%
- viability, T/C [15]: 93.8%
- viability, T/C [16]: 77.2%
- viability, T/C [3]: 86.1%
- viability, T/C [4]: 88.3%
- viability, T/C [17]: 89.9%
- viability, T/C [18]: 85.6%
- viability, T/C [19]: 76.5%
- viability, T/C [20]: 57.1%
- viability, T/C [5]: 74.3%
- viability, T/C [6]: 77.5%
- viability, T/C [21]: 74.3%
- viability, T/C [22]: 76.8%
- viability, T/C [23]: 77.2%
- viability, T/C [24]: 57.8%
- viability, T/C [7]: 71.5%
- viability, T/C [8]: 69.8%
- viability, T/C [25]: 68.3%
- viability, T/C [26]: 65.9%
- viability, T/C [27]: 69.5%
- viability, T/C [28]: 57.6%
- viability, T/C [9]: 68.4%
- viability, T/C [10]: 68.8%
- viability, T/C [29]: 68.2%
- viability, T/C [30]: 68.7%
- viability, T/C [31]: 66.4%
- viability, T/C [32]: 51.4%
- viability, T/C [11]: 62.1%
- viability, T/C [12]: 62.5%
- viability, T/C [33]: 63.2%
- viability, T/C [34]: 66.4%
- viability, T/C [35]: 64.1%
- viability, T/C [36]: 49.9%
